Measured values published in US20090035394A1, “USE OF DNA-PK INHIBITION TO SENSITISE ATM DEFICIENT CANCERS TO DNA-DAMAGING CANCER THERAPIES” (priority 2005, published 2009).

What was measured:
[1] = tested on: pEBS7-YZ5 (ATM-competent, ATM+/+) cells; assay: Chemopotentiation, sulforhodamine B growth assay in 96 well plates; format: cell-based, human; conditions: for % survival / Avg (absorbance at 564 nm): no inhibitor, pEBS7-YZ; for PF50 (potentiation factor at 50% cell kill): damaging agent without / with KU-0060648 (0.5 μM), pEBS7-YZ (ATM-competent)
Experimental: (§1) The A-T fibroblast AT221JE-T cells (pEBS7, herein referred to as ATM-null cells) and the trans-complemented ATM+/+ (pEBS7-YZ5, herein referred to as ATM-competent cells) were grown in DMEM+20% FBS PSG and 100 ug/ml hygromycin. These cells are immortalised fibroblasts from an A-T patient which were transfected with pEBS7-YZ5 vector coding for full length ATM and the hygromycin resistance marker or pEBS7 vector, coding for the hygromycin resistance marker only. (Ziv Y et al (1997) Oncogene 15, 159-67)
(§2) Following a 4-hour incubation to allow cell adherence, 5 μl DNA-PKcS inhibitor KU-0060648 (final concentration 0.5 μM) or DMSO/PBS equivalent was added. After a further 1 hour incubation, 5 μl of chemotherapeutic drug was added per well (see table 1). Drugs were removed after 16 hours and 150 μl fresh medium added per well. After 24h, one plate for each cell line was fixed and stained to account for background differences between the lines. Five days after seeding, the medium was aspirated from the wells of the remaining assay plates and 100 μl ice cold 10% TCA added for 30 minutes at 4° C. The wells were then washed four times with tap water and 50 μl 0.4% sulforhodamine B in 1% acetic acid added per well. After 15 minutes incubation at room temperature, excess stain was washed from the wells with 1% acetic acid. 100 μl […] pH6.8 was then added per well, the plates shaken to resuspend the stain and the absorbance at 564 nm determined.

pEBS7 (ATM-null) cells = assay: as above; format: cell-based, human; conditions: for % survival / Avg (absorbance at 564 nm): no inhibitor, pEBS7; for PF50 (potentiation factor at 50% cell kill): damaging agent without / with KU-0060648 (0.5 μM), pEBS7 (ATM-null)
Experimental: as §1, §2

[2] = Con: doxorubicin 0.01 (unit not given)
[3] = Con: doxorubicin 0.025 (unit not given)
[4] = Con: doxorubicin 0.05 (unit not given)
[5] = Con: doxorubicin 0.075 (unit not given)
[6] = Con: doxorubicin 0.1 (unit not given)
[7] = Con: doxorubicin 0.25 (unit not given)
[8] = Con: doxorubicin 0.5 (unit not given)
[9] = Con: doxorubicin 0.75 (unit not given)
[10] = Con: doxorubicin 1 (unit not given)
[11] = Con: doxorubicin 2.5 (unit not given)
[12] = Con: doxorubicin 5 (unit not given)
[13] = Con: etoposide 0.01 (μg/ml per Table 1)
[14] = Con: etoposide 0.025 (μg/ml per Table 1)
[15] = Con: etoposide 0.05 (μg/ml per Table 1)
[16] = Con: etoposide 0.075 (μg/ml per Table 1)
[17] = Con: etoposide 0.1 (μg/ml per Table 1)
[18] = Con: etoposide 0.25 (μg/ml per Table 1)
[19] = Con: etoposide 0.5 (μg/ml per Table 1)
[20] = Con: etoposide 0.75 (μg/ml per Table 1)
[21] = Con: etoposide 1 (μg/ml per Table 1)
[22] = Con: etoposide 2.5 (μg/ml per Table 1)
[23] = Con: etoposide 5 (μg/ml per Table 1)

SMILES: COc1cccc2c1C(=O)c1c(O)c3c(c(O)c1C2=O)C[C@@](O)(C(=O)CO)C[C@@H]3O[C@H]1C[C@H](N)[C@H](O)[C@H](C)O1 [Doxorubicin, doxorubicin, reference compound]
- % survival [1, 2]: 88.3%
- Avg (absorbance at 564 nm) [1, 2]: 1.43
- % survival [1, 3]: 89.4%
- Avg (absorbance at 564 nm) [1, 3]: 1.45
- % survival [1, 4]: 87.3%
- Avg (absorbance at 564 nm) [1, 4]: 1.42
- % survival [1, 5]: 94.1%
- Avg (absorbance at 564 nm) [1, 5]: 1.53
- % survival [1, 6]: 103.9%
- Avg (absorbance at 564 nm) [1, 6]: 1.69
- % survival [1, 7]: 95.3%
- Avg (absorbance at 564 nm) [1, 7]: 1.55
- % survival [1, 8]: 53.4%
- Avg (absorbance at 564 nm) [1, 8]: 0.87
- % survival [1, 9]: 33.2%
- Avg (absorbance at 564 nm) [1, 9]: 0.54
- % survival [1, 10]: 8.8%
- Avg (absorbance at 564 nm) [1, 10]: 0.14
- % survival [1, 11]: −1.7%
- Avg (absorbance at 564 nm) [1, 11]: −0.03
- % survival [1, 12]: −2.6%
- Avg (absorbance at 564 nm) [1, 12]: −0.04
- PF50 (potentiation factor at 50% cell kill) [1]: 1.5
- % survival (pEBS7 (ATM-null) cells; [2]): 111.8%
- Avg (absorbance at 564 nm) (pEBS7 (ATM-null) cells; [2]): 1.46
- % survival (pEBS7 (ATM-null) cells; [3]): 117.0%
- Avg (absorbance at 564 nm) (pEBS7 (ATM-null) cells; [3]): 1.53
- % survival (pEBS7 (ATM-null) cells; [4]): 106.4%
- Avg (absorbance at 564 nm) (pEBS7 (ATM-null) cells; [4]): 1.39
- % survival (pEBS7 (ATM-null) cells; [5]): 113.1%
- Avg (absorbance at 564 nm) (pEBS7 (ATM-null) cells; [5]): 1.47
- % survival (pEBS7 (ATM-null) cells; [6]): 111.2%
- Avg (absorbance at 564 nm) (pEBS7 (ATM-null) cells; [6]): 1.45
- % survival (pEBS7 (ATM-null) cells; [7]): 63.8%
- Avg (absorbance at 564 nm) (pEBS7 (ATM-null) cells; [7]): 0.83
- % survival (pEBS7 (ATM-null) cells; [8]): 37.3%
- Avg (absorbance at 564 nm) (pEBS7 (ATM-null) cells; [8]): 0.49
- % survival (pEBS7 (ATM-null) cells; [9]): 12.6%
- Avg (absorbance at 564 nm) (pEBS7 (ATM-null) cells; [9]): 0.16
- % survival (pEBS7 (ATM-null) cells; [10]): −0.9%
- Avg (absorbance at 564 nm) (pEBS7 (ATM-null) cells; [10]): −0.01
- % survival (pEBS7 (ATM-null) cells; [11]): −2.6%
- Avg (absorbance at 564 nm) (pEBS7 (ATM-null) cells; [11]): −0.03
- % survival (pEBS7 (ATM-null) cells; [12]): −3.6%
- Avg (absorbance at 564 nm) (pEBS7 (ATM-null) cells; [12]): −0.05
- PF50 (potentiation factor at 50% cell kill) (pEBS7 (ATM-null) cells): 2.3

SMILES: COc1cc([C@@H]2c3cc4c(cc3[C@@H](O[C@@H]3O[C@@H]5CO[C@@H](C)O[C@H]5[C@H](O)[C@H]3O)[C@H]3COC(=O)[C@H]23)OCO4)cc(OC)c1O [Etoposide, etoposide, reference compound]
- % survival [1, 13]: 103.9%
- Avg (absorbance at 564 nm) [1, 13]: 1.74
- % survival [1, 14]: 93.1%
- Avg (absorbance at 564 nm) [1, 14]: 1.56
- % survival [1, 15]: 94.1%
- Avg (absorbance at 564 nm) [1, 15]: 1.58
- % survival [1, 16]: 96.6%
- Avg (absorbance at 564 nm) [1, 16]: 1.62
- % survival [1, 17]: 104.2%
- Avg (absorbance at 564 nm) [1, 17]: 1.75
- % survival [1, 18]: 95.8%
- Avg (absorbance at 564 nm) [1, 18]: 1.60
- % survival [1, 19]: 95.0%
- Avg (absorbance at 564 nm) [1, 19]: 1.59
- % survival [1, 20]: 75.1%
- Avg (absorbance at 564 nm) [1, 20]: 1.26
- % survival [1, 21]: 32.4%
- Avg (absorbance at 564 nm) [1, 21]: 0.54
- % survival [1, 22]: 39.0%
- Avg (absorbance at 564 nm) [1, 22]: 0.65
- % survival [1, 23]: 21.7%
- Avg (absorbance at 564 nm) [1, 23]: 0.36
- PF50 (potentiation factor at 50% cell kill) [1]: 1.7
- % survival (pEBS7 (ATM-null) cells; [13]): 84.6%
- Avg (absorbance at 564 nm) (pEBS7 (ATM-null) cells; [13]): 1.38
- % survival (pEBS7 (ATM-null) cells; [14]): 84.9%
- Avg (absorbance at 564 nm) (pEBS7 (ATM-null) cells; [14]): 1.38
- % survival (pEBS7 (ATM-null) cells; [15]): 89.0%
- Avg (absorbance at 564 nm) (pEBS7 (ATM-null) cells; [15]): 1.45
- % survival (pEBS7 (ATM-null) cells; [16]): 90.8%
- Avg (absorbance at 564 nm) (pEBS7 (ATM-null) cells; [16]): 1.48
- % survival (pEBS7 (ATM-null) cells; [17]): 80.6%
- Avg (absorbance at 564 nm) (pEBS7 (ATM-null) cells; [17]): 1.31
- % survival (pEBS7 (ATM-null) cells; [18]): 66.8%
- Avg (absorbance at 564 nm) (pEBS7 (ATM-null) cells; [18]): 1.09
- % survival (pEBS7 (ATM-null) cells; [19]): 53.0%
- Avg (absorbance at 564 nm) (pEBS7 (ATM-null) cells; [19]): 0.86
- % survival (pEBS7 (ATM-null) cells; [20]): 15.8%
- Avg (absorbance at 564 nm) (pEBS7 (ATM-null) cells; [20]): 0.26
- % survival (pEBS7 (ATM-null) cells; [21]): 2.5%
- Avg (absorbance at 564 nm) (pEBS7 (ATM-null) cells; [21]): 0.04
- % survival (pEBS7 (ATM-null) cells; [22]): 1.2%
- Avg (absorbance at 564 nm) (pEBS7 (ATM-null) cells; [22]): 0.02
- % survival (pEBS7 (ATM-null) cells; [23]): −1.6%
- Avg (absorbance at 564 nm) (pEBS7 (ATM-null) cells; [23]): −0.03
- PF50 (potentiation factor at 50% cell kill) (pEBS7 (ATM-null) cells): 6.5
